Laboratory results as given in PubChem BioAssay (NCI).
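Step 1: Grow cells in 96-well plates. Step 2: Expose to compound for 48 hours at 5 concentrations. Step 3: Interpolate endpoints linearly; if unreached, use highest concentration. GI50: concentration for 50% inhibition of growth. At the TGI there is no net growth.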

Tests used:
Experiment in all cases: NCI-60 cell line screen, 48 h
[1] = test system: UACC-62 melanoma
[2] = test system: RPMI-8226 leukemia
[3] = test system: HS 578T breast
[4] = test system: MOLT-4 leukemia
[5] = test system: PC-3 prostate
[6] = test system: OVCAR-8 ovarian
[7] = test system: IGROV1 ovarian
[8] = test system: HOP-92 NSCLC
[9] = test system: MALME-3M melanoma
[10] = test system: MDA-MB-231 breast
[11] = test system: SN12C renal
[12] = test system: BT-549 breast
[13] = test system: NCI/ADR-RES ovarian
[14] = test system: EKVX NSCLC
[15] = test system: SW-620 colon
[16] = test system: OVCAR-5 ovarian
[17] = test system: NCI-H23 lung
[18] = test system: SK-MEL-28 melanoma
[19] = test system: RXF 393 renal
[20] = test system: NCI-H522 lung
[21] = test system: ACHN renal
[22] = test system: SNB-75 CNS
[23] = test system: SK-OV-3 ovarian
[24] = test system: HCT-116 colon
[25] = test system: SK-MEL-5 melanoma
[26] = test system: M14 melanoma
[27] = test system: SF-539 CNS
[28] = test system: SNB-19 CNS
[29] = test system: KM12 colon
[30] = test system: HCT-15 colon
[31] = test system: CAKI-1 renal
[32] = test system: MDA-MB-435
[33] = test system: SF-295 CNS
[34] = test system: K-562 leukemia
[35] = test system: UO-31 renal
[36] = test system: A498 renal
[37] = test system: CCRF-CEM leukemia
[38] = test system: 786-0 renal
[39] = test system: HT29 colon
[40] = test system: SK-MEL-2 melanoma
[41] = test system: HL-60(TB) leukemia
[42] = test system: A549 NSCLC
[43] = test system: TK-10 renal
[44] = test system: T-47D breast
[45] = test system: DU-145 prostate
[46] = test system: COLO 205 colon
[47] = test system: SF-268 CNS
[48] = test system: OVCAR-4 ovarian
[49] = test system: UACC-257 melanoma
[50] = test system: NCI-H460 lung
[51] = test system: SR leukemia
[52] = test system: U251 CNS
[53] = test system: OVCAR-3 ovarian
[54] = test system: LOX IMVI melanoma
[55] = test system: NCI-H226 lung
[56] = test system: HCC-2998 colon
[57] = test system: HOP-62 NSCLC
[58] = test system: MCF7 breast

## FC(F)=C(c1ccc(-c2ccc(Cl)cc2)cc1)C(F)(F)F
[1]
  TGI: 38.6 µM
[2]
  TGI: 51.8 µM
[3]
  TGI: 68.7 µM
[4]
  TGI: > 100 µM
[5]
  TGI: 32.5 µM
[6]
  TGI: 57.9 µM
[7]
  TGI: 33.9 µM
[8]
  TGI: 33.4 µM
[9]
  TGI: 31.3 µM
[10]
  TGI: 46.3 µM
[11]
  TGI: 45.4 µM
[12]
  TGI: 39.3 µM
[13]
  TGI: 63.8 µM
[14]
  TGI: 41.5 µM
[15]
  TGI: 40.3 µM
[16]
  TGI: 31.3 µM
[17]
  TGI: 35.4 µM
[18]
  TGI: 28.4 µM
[19]
  TGI: 40.9 µM
[20]
  TGI: 36.6 µM
[21]
  TGI: 31.1 µM
[22]
  TGI: 25.6 µM
[23]
  TGI: 41.2 µM
[24]
  TGI: 32 µM
[25]
  TGI: 32.9 µM
[26]
  TGI: 36.1 µM
[27]
  TGI: 45.3 µM
[28]
  TGI: 36.9 µM
[29]
  TGI: 36.7 µM
[30]
  TGI: 42.2 µM
[31]
  TGI: 46.3 µM
[32]
  TGI: 49.4 µM
[33]
  TGI: 56.7 µM
[34]
  TGI: 71.9 µM
[35]
  TGI: 31 µM
[36]
  TGI: 31.9 µM
[37]
  TGI: 62.1 µM
[38]
  TGI: 37.8 µM
[39]
  TGI: 67.4 µM
[40]
  TGI: 42.5 µM
[41]
  TGI: > 100 µM
[42]
  TGI: 37.4 µM
[43]
  TGI: 29.4 µM
[44]
  TGI: 76.8 µM
[45]
  TGI: 34.6 µM
[46]
  TGI: 36.1 µM
[47]
  TGI: 56.3 µM
[48]
  TGI: 33.5 µM
[49]
  TGI: 37.5 µM
[50]
  TGI: 33.7 µM
[51]
  TGI: 52.4 µM
[52]
  TGI: 31.4 µM

## C=C(C)[C@@H]1CC[C@@]2(C(=O)O)CC[C@]3(C)C(CCC4[C@@]5(C)CCC(OS(=O)(=O)c6ccccc6)C(C)(C)C5CC[C@]43C)C12 (stereo not given in full)
[53]
  GI50: 3.95 µM
  TGI: 14.9 µM
[54]
  GI50: 5.99 µM
  TGI: 18.6 µM
[1]
  GI50: 2.55 µM
  TGI: 19.3 µM
[2]
  GI50: 1.69 µM
  TGI: > 100 µM
[3]
  GI50: 8 µM
  TGI: 42.4 µM
[5]
  GI50: 1.5 µM
  TGI: 35.8 µM
[6]
  GI50: 5.8 µM
  TGI: 88.7 µM
[7]
  GI50: 10.4 µM
  TGI: 31.2 µM
[8]
  GI50: 2.47 µM
  TGI: 16.2 µM
[9]
  GI50: 12.2 µM
  TGI: 26 µM
[10]
  GI50: 8.58 µM
  TGI: 25.6 µM
[11]
  GI50: 4.88 µM
  TGI: 30.6 µM
[12]
  GI50: 3.17 µM
  TGI: 18.7 µM
[55]
  GI50: 7.07 µM
  TGI: 28.3 µM
[13]
  GI50: 3.52 µM
  TGI: 18 µM
[14]
  GI50: 2.58 µM
  TGI: 19.3 µM
[15]
  GI50: 3.89 µM
  TGI: 15.2 µM
[16]
  GI50: 9.44 µM
  TGI: 28.7 µM
[17]
  GI50: 3.28 µM
  TGI: 15.5 µM
[18]
  GI50: 9.9 µM
  TGI: 22.4 µM
[19]
  GI50: 13.8 µM
  TGI: 29.7 µM
[20]
  GI50: 2.36 µM
  TGI: 13.2 µM
[56]
  GI50: 2.28 µM
  TGI: 10.5 µM
[21]
  GI50: 4.42 µM
  TGI: 20.6 µM
[22]
  GI50: 11.5 µM
  TGI: 30.5 µM
[23]
  GI50: 14 µM
  TGI: 44.4 µM
[24]
  GI50: 2.9 µM
  TGI: 13.1 µM
[25]
  GI50: 1.4 µM
  TGI: 17 µM
[26]
  GI50: 11.2 µM
  TGI: 25.1 µM
[27]
  GI50: 9.93 µM
  TGI: 22.4 µM
[28]
  GI50: 10.1 µM
  TGI: 32.7 µM
[29]
  GI50: 3.37 µM
  TGI: 15 µM
[30]
  GI50: 2.93 µM
  TGI: 19.9 µM
[31]
  GI50: 2.36 µM
  TGI: 9.89 µM
[32]
  GI50: 4.49 µM
  TGI: 20.1 µM
[33]
  GI50: 1.93 µM
  TGI: 11.8 µM
[35]
  GI50: 2.79 µM
  TGI: 15.9 µM
[36]
  GI50: 4.68 µM
  TGI: 20.6 µM
[37]
  GI50: 5.28 µM
  TGI: > 100 µM
[38]
  GI50: 4.73 µM
  TGI: 19 µM
[39]
  GI50: 5.52 µM
  TGI: 18 µM
[57]
  GI50: 5.15 µM
  TGI: 18.5 µM
[40]
  GI50: 4.4 µM
  TGI: 16.3 µM
[42]
  GI50: 2.44 µM
  TGI: 17.7 µM
[43]
  GI50: 3.84 µM
  TGI: 25.4 µM
[44]
  GI50: 2 µM
  TGI: 17.1 µM
[45]
  GI50: 6.5 µM
  TGI: 20.8 µM
[46]
  GI50: 5.66 µM
  TGI: 18.2 µM
[47]
  GI50: 13.6 µM
  TGI: 51.5 µM
[58]
  GI50: 4.4 µM
  TGI: 19.6 µM
[48]
  GI50: 4.49 µM
  TGI: 28.5 µM
[49]
  GI50: 4.76 µM
  TGI: 39.6 µM
[50]
  GI50: 3.36 µM
  TGI: 15.5 µM
[52]
  GI50: 3.62 µM
  TGI: 15.7 µM
